Assay results published in patent publication US8183238B2, “Bicyclic and tricyclic compounds as KAT II inhibitors” (priority 2009, dated 2012).
Counter-ions that a name gives are not always drawn.

Target: human KAT II (hKAT II) enzyme (Homo sapiens, UniProt Q8N5Z0)
Assay: KAT II Inhibition Spectra Assay
Assay type: biochemical
Settings: Table 6; hKAT II, decrease in OD370, 37° C., 15-20 h; read-out: KATII IC50
Procedure: Formation of kynurenic acid (KYNA) is indirectly assessed by a decrease in light absorbance at 370 nm (OD370) as the L-kynurenine (KYN) substrate is converted by the human KAT II (hKAT II) enzyme into KYNA. An inhibitor would therefore inhibit the decrease in OD370.
The protocol was performed by placing the following reagents into a Costar 384 well black plate (30 μL total assay volume/well): • 10 μL of 3× concentrated compound; • 10 μL of 3× concentrated substrate mix (BGG (Sigma G-5009); 3 mM L-Kynurenine in 150 mM Tris Acetate (Sigma K3750); 3 mM α-ketoglutaric acid in 150 mM Tris Acetate (Sigma K2010); and 210 μM pyridoxal 5-phosphate (PLP) in 150 mM Tris Acetate (Sigma 9255)); and • 10 μL of 3× concentrated enzyme (15 nM enzyme in 150 mM Tris Acetate with 0.3% bovine serum).
Plates were sealed and incubated at 37° C. for 15-20 h before reading OD370 on a SpectraMax Plus plate reader. IC50s were generated by comparing the efficacy of compounds across a concentration range to inhibit a reduction in the OD370 value relative to assay wells with DMSO added in place of concentrated compound.

Sequence of human KAT II (hKAT II) enzyme (Q8N5Z0 30-425): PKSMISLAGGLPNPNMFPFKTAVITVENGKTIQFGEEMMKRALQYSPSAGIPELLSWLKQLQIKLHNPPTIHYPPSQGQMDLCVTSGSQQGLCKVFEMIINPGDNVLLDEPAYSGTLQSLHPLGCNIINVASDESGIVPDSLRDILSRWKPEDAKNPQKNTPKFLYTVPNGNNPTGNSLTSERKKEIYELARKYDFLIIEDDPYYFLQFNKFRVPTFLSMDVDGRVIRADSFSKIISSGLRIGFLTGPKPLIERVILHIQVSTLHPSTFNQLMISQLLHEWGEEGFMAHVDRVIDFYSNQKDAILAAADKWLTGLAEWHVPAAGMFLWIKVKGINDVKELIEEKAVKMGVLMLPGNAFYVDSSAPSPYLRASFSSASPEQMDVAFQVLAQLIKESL

IC50	Compound
34.6 nM	CN(Cc1ccc2c(c1)C[C@H](N)C(=O)N2O)c1ccccc1 [Example 76, (3S)-3-amino-1-hydroxy-6-{[methyl(phenyl)amino]methyl}-3,4-dihydroquinolin-2(1H)-one]
80.1 nM	N[C@H]1Cc2cccc(Oc3ccccc3)c2N(O)C1=O [Example 77]
17.3 nM	COc1cccc(Oc2ccc3c(c2)C[C@H](N)C(=O)N3O)c1 [Example 78]
29.5 nM	N[C@H]1Cc2cc(Oc3cccc(C(F)(F)F)c3)cnc2N(O)C1=O [Example 79]
31.1 nM	COc1cccc(Oc2cnc3c(c2)C[C@H](N)C(=O)N3O)c1 [Example 80]
212 nM	N[C@H]1Cc2ccc3c(c2N(O)C1=O)CCO3 [Example 81]
41.1 nM	N#Cc1ccccc1Oc1ccc2c(c1)CC(N)C(=O)N2O (stereo not drawn) [Example 82]
39.7 nM	COc1cc2c(cc1Cc1cccc(C(F)(F)F)c1)C[C@H](N)C(=O)N2O [Example 83]
41.1 nM	NC1Cc2cc(Oc3ccc(O)nc3)ccc2N(O)C1=O (stereo not drawn) [Example 84]
39.9 nM	NC1Cc2cc(Oc3ccc(F)cc3F)ccc2N(O)C1=O (stereo not drawn) [Example 85]
65 nM	NC1Cc2cc(F)cc(Oc3ccccc3)c2N(O)C1=O (stereo not drawn) [Example 86]
40.9 nM	Cc1ncccc1Oc1ccc2c(c1)CC(N)C(=O)N2O (stereo not drawn) [Example 87]
20.9 nM	Cc1ccc(Oc2ccc3c(c2)CC(N)C(=O)N3O)cn1 (stereo not drawn) [Example 88]
36.4 nM	NC1Cc2cc(Oc3cc(F)ccc3F)ccc2N(O)C1=O (stereo not drawn) [Example 89]
355 nM	N[C@H]1Cc2cccc(-c3cccnc3C(F)(F)F)c2N(O)C1=O [Example 90]
36.2 nM	COc1ccc(Oc2ccc3c(c2)CC(N)C(=O)N3O)cc1 (stereo not drawn) [Example 91]
51.3 nM	NC1Cc2cc(Oc3ccccn3)ccc2N(O)C1=O (stereo not drawn) [Example 92]
35.6 nM	NC1Cc2cc(Oc3cccc(C(F)(F)F)c3)ccc2N(O)C1=O (stereo not drawn) [Example 93]
43.9 nM	NC1Cc2cc(Oc3cccc(OC(F)(F)F)c3)ccc2N(O)C1=O (stereo not drawn) [Example 94]
35.9 nM	NC1Cc2cc(Oc3cccnc3)ccc2N(O)C1=O (stereo not drawn) [Example 95]
49.6 nM	N[C@H]1Cc2cccc(OCC(F)(F)F)c2N(O)C1=O [Example 96]
313 nM	N[C@H]1Cc2cccc(-c3ccccc3)c2N(O)C1=O [Example 97]
31.9 nM	Cc1ccc(Oc2ccc3c(c2)CC(N)C(=O)N3O)cc1 (stereo not drawn) [Example 98]
19.8 nM	N#Cc1ccc(Oc2ccc3c(c2)CC(N)C(=O)N3O)cc1 (stereo not drawn) [Example 99]
103 nM	NC1Cc2cc(Oc3ccncc3)ccc2N(O)C1=O (stereo not drawn) [Example 100]
39.7 nM	NC1Cc2cc(Oc3cccc(Cl)c3)ccc2N(O)C1=O (stereo not drawn) [Example 101]
68.6 nM	NC1Cc2cc(Oc3ccc(C(F)(F)F)cc3)ccc2N(O)C1=O (stereo not drawn) [Example 102]

IC50	Compound
77.5 nM	NC1Cc2cc(Oc3ccc(OC(F)(F)F)cc3)ccc2N(O)C1=O (stereo not drawn) [Example 103]
307 nM	COc1cc(Cl)c2c(c1)N(O)C(=O)[C@@H](N)C2 [Example 104]
68.1 nM	NC1Cc2cc(Oc3ccc(Cl)cc3)ccc2N(O)C1=O (stereo not drawn) [Example 105]
49.2 nM	NC1Cc2cc(Oc3cccc(F)c3)ccc2N(O)C1=O (stereo not drawn) [Example 106]
56.7 nM	NC1Cc2cc(Oc3ccccc3F)ccc2N(O)C1=O (stereo not drawn) [Example 107]
70.1 nM	NC1Cc2cc(Oc3ccc(F)cc3)ccc2N(O)C1=O (stereo not drawn) [Example 108]
288 nM	N[C@H]1Cc2c(F)ccc(Cl)c2N(O)C1=O [Example 109]
983 nM	CCc1cccc2c1N(O)C(=O)[C@@H](N)C2 [Example 110]
45.2 nM	N[C@H]1Cc2c(ccc(Oc3ccccc3)c2F)N(O)C1=O [Example 111]
49.3 nM	N[C@H]1Cc2cc(C3CCOCC3)ccc2N(O)C1=O [Example 112]
301 nM	N[C@H]1Cc2cc(Cl)cc(Cl)c2N(O)C1=O [Example 113]
37 nM	N[C@H]1Cc2c(ccc(F)c2F)N(O)C1=O [Example 114]
52.7 nM	N[C@H]1Cc2cc(Cl)c(Cl)cc2N(O)C1=O [Example 115]
51.9 nM	N[C@H]1Cc2c(ccc(C3CC3)c2F)N(O)C1=O [Example 116]
53.7 nM	N[C@H]1Cc2c(ccc(Cl)c2F)N(O)C1=O [Example 117]
1270 nM	COc1cccc2c1N(O)C(=O)C(N)C2 (stereo not drawn) [Example 118]
41.1 nM	N[C@H]1Cc2cccc(C(F)F)c2N(O)C1=O [Example 119]
61.9 nM	N[C@H]1Cc2cc(F)cc(F)c2N(O)C1=O [Example 120]
35.1 nM	N[C@H]1Cc2cc(Oc3ccc(Cl)cc3)cnc2N(O)C1=O [Example 124]
17.2 nM	COc1cccc(Cc2cc3c(cc2OC)N(O)C(=O)[C@@H](N)C3)c1 [Example 125]
30.9 nM	COc1cc2c(cc1Cc1cccc(C#N)c1)C[C@H](N)C(=O)N2O [Example 126]
28.2 nM	N[C@H]1Cc2cc(Cc3ccccc3)cnc2N(O)C1=O [Example 127]
25.5 nM	Cc1nc2c(cc1Cc1ccccc1)C[C@H](N)C(=O)N2O [Example 128]
49.1 nM	N#Cc1cccc(Oc2cnc3c(c2)C[C@H](N)C(=O)N3O)c1 [Example 129]
1570 nM	N[C@H]1Cc2ccncc2N(O)C1=O [Example 130]
121 nM	N[C@H]1Cc2cc(-c3ccccc3OC(F)(F)F)ccc2N(O)C1=O [Example 132, (3S)-3-amino-1-hydroxy-6-[2-(trifluoromethoxy)phenyl]-3,4-dihydroquinolin-2(1H)-one, trifluoroacetate salt]

Compound	IC50
N[C@H]1Cc2cc(-c3cccc(OC(F)(F)F)c3)ccc2N(O)C1=O [Example 131, (3S)-3-amino-1-hydroxy-6-[3-(trifluoromethoxy)phenyl]-3,4-dihydroquinolin-2(1H)-one, trifluoroacetate salt]	246 nM
N[C@H]1Cc2cc(-c3cc(F)ccc3F)ccc2N(O)C1=O [Example 133, (3S)-3-amino-6-(2,5-difluorophenyl)-1-hydroxy-3,4-dihydroquinolin-2(1H)-one, trifluoroacetate salt]	86.6 nM
COc1ccc(-c2ccc3c(c2)C[C@H](N)C(=O)N3O)cc1C [Example 134, (3S)-3-amino-1-hydroxy-6-(4-methoxy-3-methylphenyl)-3,4-dihydroquinolin-2(1H)-one, trifluoroacetate salt]	199 nM
Cc1ccccc1-c1ccc2c(c1)C[C@H](N)C(=O)N2O [Example 135, (3S)-3-amino-1-hydroxy-6-(2-methylphenyl)-3,4-dihydroquinolin-2(1H)-one, trifluoroacetate salt]	116 nM
N[C@H]1Cc2cc(-c3ccccc3F)ccc2N(O)C1=O [Example 136, (3S)-3-amino-6-(2-fluorophenyl)-1-hydroxy-3,4-dihydroquinolin-2(1H)-one, trifluoroacetate salt]	129 nM
COc1ccc(-c2ccc3c(c2)C[C@H](N)C(=O)N3O)c(C)c1 [Example 137, (3S)-3-amino-1-hydroxy-6-(4-methoxy-2-methylphenyl)-3,4-dihydroquinolin-2(1H)-one, trifluoroacetate salt]	69 nM
N[C@H]1Cc2cc(-c3ccc4c(c3)CCO4)ccc2N(O)C1=O [Example 138, (3S)-3-amino-6-(2,3-dihydro-1-benzofuran-5-yl)-1-hydroxy-3,4-dihydroquinolin-2(1H)-one, trifluoroacetate salt]	156 nM
